# Measured values published in patent US7326685B2, “Diagnostic or therapeutic somatostatin or bombesin analog conjugates and uses thereof” (The Administrators of the Tulane Educational Fund, priority 2001, dated 2008).
# Where two headings read alike, the source gives them in different places.
# Key:
# [1] = cited from earlier work
# [2] = cited from earlier work; remark: listed apart in the source
# [3] = ×5 in mice; cited from earlier work
# [4] = tested on: neuroblastoma IMR-32 cells; assay: CellTiter 96 tumor cell proliferation assay; assay type: cell-based; conditions: conjugate compared to non-conjugated methotrexate
# Procedure: A CellTiter 96 cell proliferation kit was used according to the described protocols (Promega Corporation, Madison, Wis.)). Culture medium (50 μl) containing various concentrations of different peptides was added respectively in each well of the 96-well kit plates followed by 50 μl of a suspension containing 5,000 cultured IMR-32 tumor cells. The plate was incubated at 37° C. for different times up to and including 7 days in a humidified, 5% CO2 atmosphere. Kit dye solution (15 μl ) was added to each well and the plate incubated the plates at 37° C. for 4 hours in a humidified, 5% CO2 atmosphere. After 4 hours, 100 μl of the solubilization/stop solution were added to each well and incubation was continued at 37° C. for 1 hour or more until complete solubilization of the formazan crystals occurred. Absorbencies of individual well solutions were then measured at 570 nm wavelength using a 96 well plate reader.
# [5] = 1×iv, mice; cited from earlier work
# [6] = target: GH release from primary cultures of rat pituitary cells (somatostatin subtype 2 rat receptor related system) (Rattus norvegicus, UniProt P30680); assay: Inhibition of GH release from primary cultures of rat pituitary cells; assay type: cell-based; conditions: GH stimulated with 1 nM GRH(1-29)NH2, 3 h
# Procedure: This is a primary system for evaluating SRIF analog potency and can be considered a somatostatin subtype 2 rat receptor related system which historically also correlates well with human subtype 2 binding.
# Anterior pituitaries from adult male rats weighing 200-250 g and housed under controlled conditions (lights on from 0500-1900 h), are dispersed using aseptic techniques by a trypsin/DNase method. The dispersed cells are diluted with sterile-filtered Dulbecco's modified Eagle medium (MEM) (Gibco Laboratories, Grand Island, N.Y. (GIBCO)), which is supplemented with 2.5% fetal calf serum (GIBCO), 3% horse serum (GIBCO), 10% fresh rat serum (stored on ice for no longer than 1 h) from the pituitary donors, 1% MEM nonessential amino acids (GIBCO), gentamycin (10 ng/ml; Sigma), and nystatin (10,000 U/ml; GIBCO). The cells are counted with a hemacytometer (approximately 2,000,000 cells per pituitary) and randomly plated at a density of 200,000 cells per well (Co-star cluster 24; Rochester Scientific Co., Rochester, N.Y.). […]
# In preparation for a hormone challenge, the cells are washed 3× with medium 199 (GIBCO) to remove old medium and floating cells. […] GH in plasma and media is measured by a standard double antibody RIA using components supplied by the NIDDK and the National Hormone and Pituitary Program.
# [7] = rat, in vivo, ip
# Procedure: The solution was divided into three equal parts not exceeding 2 mL and injected intraperitoneally into each rat. Urine and feces were collected on an adsorbent pad overnight. At 24 hours, the rats were killed, dissected and each of the below organs were weighed and counted in a dose calibrator.
# Sequence of GH release from primary cultures of rat pituitary cells (somatostatin subtype 2 rat receptor related system) (P30680 whole entry): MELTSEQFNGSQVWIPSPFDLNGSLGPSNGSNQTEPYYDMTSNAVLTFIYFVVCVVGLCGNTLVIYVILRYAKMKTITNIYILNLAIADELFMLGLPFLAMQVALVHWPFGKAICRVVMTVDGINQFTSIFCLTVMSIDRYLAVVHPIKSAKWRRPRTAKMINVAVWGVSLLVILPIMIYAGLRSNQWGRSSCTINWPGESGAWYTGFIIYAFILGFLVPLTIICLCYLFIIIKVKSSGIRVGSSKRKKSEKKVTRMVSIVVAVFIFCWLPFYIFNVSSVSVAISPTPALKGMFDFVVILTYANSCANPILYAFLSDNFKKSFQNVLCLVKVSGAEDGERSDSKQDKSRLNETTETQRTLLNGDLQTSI
compound,measurement,setting,value
N.N.[Cl][Pt][Cl] [Cis-Pt],MTD,[1]; in man,100 mg/m^2
CC(=O)O[C@@]12CO[C@@H]1C[C@H](O)[C@@]1(C)C(=O)[C@H](O)C3=C(C)[C@@H](OC(=O)[C@H](O)[C@@H](NC(=O)OC(C)(C)C)c4ccccc4)C[C@@](O)([C@@H](OC(=O)c4ccccc4)[C@H]21)C3(C)C [Docetaxel],MTD,[2]; in vivo,60-100 mg/m^2
O=c1[nH]c(=O)n([C@H]2C[C@H](O)[C@@H](CO)O2)cc1F [FUDR],MTD,[3],100 mg/kg
same,MTD,[1]; in human i.a.,0.6 mg/kg/day
Nc1nc(F)nc2c1ncn2[C@@H]1O[C@H](COP(=O)(O)O)[C@@H](O)[C@@H]1O [Fludarabine-P04],MTD,[2]; ×5 days,25 mg/m^2/day
NC(=O)NO [Hydroxyurea],MTD,[1]; in man,35 mg/kg/day
"O=c1[nH]cc(F)c(=O)[nH]1 [Peptide 5-FU, 5-FU]",MTD,[2]; ×5 days,500 mg/m^2/day
CCCCCOC(=O)Nc1nc(=O)n([C@@H]2O[C@H](C)[C@@H](O)[C@H]2O)cc1F [capecitabine],MTD,[2]; orally,2.5 g/m^2
N.N.O=C([O-])C1(C(=O)[O-])CCC1.[Pt+2] [carbo-Pt],MTD,[1]; in man,360 mg/m^2
Nc1ccn([C@@H]2O[C@H](CO)[C@@H](O)[C@@H]2O)c(=O)n1 [cytarabine],MTD,[2]; in vivo,100 mg/m^2/day
COc1cc([C@@H]2c3cc4c(cc3[C@@H](O[C@@H]3O[C@@H]5CO[C@@H](C)O[C@H]5[C@H](O)[C@H]3O)[C@H]3COC(=O)[C@H]23)OCO4)cc(OC)c1O [etoposide],MTD,[1]; in man,100 mg/m^2
Nc1ccn([C@@H]2O[C@H](CO)[C@@H](O)C2(F)F)c(=O)n1 [gemcitabine],MTD,[2]; in vivo,1000 mg/m^2
CCc1c2c(nc3ccc(OC(=O)N4CCC(N5CCCCC5)CC4)cc13)-c1cc3c(c(=O)n1C2)COC(=O)[C@]3(O)CC [irinotecan],MTD,[2]; 1×/wk depending on patient response,50-150 mg/m^2
CN(Cc1cnc2nc(N)nc(N)c2n1)c1ccc(C(=O)N[C@@H](CCC(=O)O)C(=O)O)cc1 [methotrexate],MTD,[2]; i.v. w/o leuco,< 500 mg/m^2
same,MTD,[2]; i.v.+leuco.,15 gm/m^2
same,"Inhibitory effects on proliferation of IMR-32 cells (potency comparison, FIG. 1)",[4],equivalent potencies
O=C1c2c(O)ccc(O)c2C(=O)c2c(NCCNCCO)ccc(NCCNCCO)c21 [mitoxantrone],MTD,[2]; in vivo,12-14 mg/m^2
NC(=O)c1ncn2c(=O)n(CCCl)nnc12 [mitozolomide],MTD,[2]; in vivo,> 400 mg/m^2
CC[C@@]1(O)C(=O)OCc2c1cc1n(c2=O)Cc2cc3c(CN(C)C)c(O)ccc3nc2-1 [topotecan],MTD,[1]; in humans,1.5 mg/m^2/day
same,LD10,[5],75 mg/m^2
CC[C@]1(O)C[C@H]2CN(CCc3c([nH]c4ccccc34)[C@@](C(=O)OC)(c3cc4c(cc3OC)N(C=O)[C@H]3[C@@](O)(C(=O)OC)[C@H](OC(C)=O)[C@]5(CC)C=CCN6CC[C@]43[C@@H]65)C2)C1 [vincristine],MTD,[2]; in vivo,1.4 mg/m^2
CCC1=C[C@@H]2CN(C1)Cc1c([nH]c3ccccc13)[C@@](C(=O)OC)(c1cc3c(cc1OC)N(C)[C@H]1[C@@](O)(C(=O)OC)[C@H](OC(C)=O)[C@]4(CC)C=CCN5CC[C@]31[C@@H]54)C2 [vinorelbine],MTD,[2]; in vivo,30 mg/m^2/wk
D-Ser-D-Ser-D-Ser-D-Ser-D-Ser-L-Lys-D-Tyr-D-Ser-cyclo[L-Cys-L-Phe-D-Trp-L-Lys-L-Thr-L-Cys]-L-Thr-NH2 [JF-08-53],IC50,[6],0.086 nM
same,Elimination of labeled peptide in urine and feces (FIG. 2),[7],rapid and high efficiency elimination
bleomycin,MTD,[2]; in vivo,20 mg/m^2
